From patent US6563014B2, “Self-contained system for sustained viral replication” (Albert Einstein College of Medicine of Yeshiva University, priority 1999, dated 2003) come the findings set out here.

Structures are written as SMILES.

This assay deals with HIV-1. Kind of assay: Effect of protease inhibitor treatment on plasma HIV RNA levels in transgenic mice. Type of assay: in vivo. An excerpt: (iv) Quantitation of plasma HIV RNA levels: HIV RNA in the mouse plasma was quantitated by using the Roche AMPLICOR HIV-1 MONITOR™ kits (Roche Diagnostic Systems, Branchburg, N.J.) which can measure virion associated HIV-1 RNA in plasma at concentrations as low as 400 RNA copies/ml as described (Pettoello-Mantovani, M., et al., J. Infect. Dis.1 77:337-346, 1998). After plasma was isolated from the peripheral blood of the JR-CSF TG mice, an internal HIV quantitation standard (QS), a synthetic RNA molecule with primer binding sites identical to the HIV target and an internal probe sequence specific to the QS RNA molecule, was added to 200 μl of each plasma sample. RNA was then extracted from the plasma samples with a Lysis Reagent containing guanidine thiocyanate, precipitated with isopropanol, resuspended in reaction buffer and a 142 base pair sequence in the HIV gag gene was amplified by reverse transcription and PCR using rtth pol and biotinylated primers SK431 and SK462. In order to prevent PCR product contamination, dUTP was incorporated during the PCR reaction and then all of the samples were treated with AmpErase prior to PCR to eliminate carryover of any dUTP-containing PCR product. The biotinylated HIV and QS amplicons were quantitated by detection in separate wells of a microwell plate coated with HIV-specific and QS-specific oligonucleotide probes, respectively, using avidin-horseradish peroxidase conjugate and a calorimetric reaction for horseradish peroxidase. The HIV and QS amplicons were measured in a dynamic range from 400 to 750,000 copies/ml by performing 5-fold serial dilutions of the amplicons in the HIV-specific and QS-specific wells of the microplate (rows A to F and G to H, respectively). The HIV RNA copy number was then calculated from the known input copy number of the QS RNA, the optical densities at 450 nm of the HIV-well and the QS-well that fell within a defined range, and the dilution factors associated with the selected wells.
First, the mean plasma viral levels in the hu-CD4/CCR5/JRCSF TG mice are higher that in the JR-CSF TG mice. […]

Setting [1] is: hu-CD4/CCR5/JRCSF TG mice, FIG. 14.

Regarding `CC(C)c1nc(CN(C)C(=O)N[C@H](C(=O)N[C@@H](Cc2ccccc2)C[C@H](O)[C@H](Cc2ccccc2)NC(=O)OCc2cncs2)C(C)C)cs1` [protease inhibitor, ritonavir], where the note is “JR-CSF TG mice”, the “plasma viremia after treatment with a protease inhibitor” value is “did not decrease and actually went up”. For the same molecule, under setting [1], the “plasma HIV RNA levels after the protease inhibitor was stopped” value is “went back up” and the “plasma HIV RNA levels after treatment with the protease inhibitor” value is given as “markedly decreased”.
